Results as given in US20230172907A1, “SARS-COV-2 INHIBITORS” (priority 2021, published 2023).

Tested on: SARS-CoV-2
Assay: In vitro SARS-CoV-2 plaque inhibition assay in Vero E6 cells
Assay type: cell-based

Row | SMILES | antiviral effects (plaque inhibition) (10 µM, 48 h) | reduction of the production of SARS-CoV-2 plaques (10 µM, 48 h) [%] | IC50 (Severe acute respiratory syndrome coronavirus 2, Vero C1008, estimated, read-out: IC50 plaque formation) [µM]
1 | COC(=O)N[C@H](C(=O)N[C@@H](Cc1ccccc1)[C@@H](O)CN(Cc1ccc(-c2ccccn2)cc1)NC(=O)[C@@H](NC(=O)OC)C(C)(C)C)C(C)(C)C [Atazanavir] | no antiviral effects |  | 
2 | CC[C@H](NC(=O)[C@H](C)NC)C(=O)N1C[C@@H](O)C[C@H]1Cc1c(-c2[nH]c3cc(F)ccc3c2C[C@@H]2C[C@H](O)CN2C(=O)[C@H](CC)NC(=O)[C@H](C)NC)[nH]c2cc(F)ccc12 [Birinapant] |  | 37 | 18 ± 3.6
